From patent publication US20040143004A1, “Metronomic dosing of taxanes” (priority 2004, published 2004)

Test system: endothelial cells in MATRIGEL plugs
Experimental: LX1 human lung tumor fragments that were maintained by serial subcutaneous passage in athymic (nu/nu) Balb/c mice were implanted subcutaneously as small fragments approximately 0.1 mm^3 in size. Tumor volume doubling time for this tumor in these studies was 2.8 days. When tumors reached the size range of 150-200 mm^3, liquid [sequence] was injected subcutaneously on the side contralateral to the tumor. Treatment was initiated 24 hours later at varying doses and schedules. Prior to implanting, [sequence] is prepared by placing solidified [sequence] on ice overnight at 4 C. in accordance with the method described by Passiniti et al. (Lab. Invest. 1992 67:519-28). At the liquid phase and while on ice, VEGF and bFGF (Peprotech, Inc. Rocky Hill, N.J.) is added to the [sequence] at final respective concentrations of 75 ng/ml and 300 ng/ml. […] These plugs were then processed for paraffin embedding and sectioned at 5 μm thickness followed by staining with hematoxylin and eosin prior to quantitative analysis. The number of endothelial cells in plugs was quantitated using the IMAGEPRO PLUS software (Media Cybernetics, Inc., Silver Spring, Md.) at a magnification of 20×. […]
Angiogenesis is evaluated in these plugs as the number of endothelial cells migrating into plugs from compound treated groups relative to the vehicle treated group.

**Q.** For `COC(=O)O[C@@]12CO[C@@H]1C[C@H](O)[C@@]1(C)C(=O)[C@H](OC(C)=O)C3=C(C)[C@@H](OC(=O)[C@H](O)[C@@H](NC(=O)OC(C)(C)C)C(C)(C)C)C[C@@](O)([C@@H](OC(=O)c4ccccc4)[C@H]21)C3(C)C` [Formula I, 3′-tert-butyl-3′-N-tert-butyloxycarbonyl-4-deacetyl-3′-dephenyl-3′-N-debenzoyl-4-O-methoxycarbonyl-paclitaxel], which “dose below MTD at which anti-angiogenic effects are still observed in vivo” value (fold lower than the maximum tolerated dose) is on record?
**A.** The value was “approximately 13 fold”.

**Q.** What about the “maximum tolerated dose (MTD)” value (mice, q2dx5 schedule) of the same compound?
**A.** Its value is 60 mg/kg.
